{"source": "patent US10123993B2", "about": "“Cyclic ureas as inhibitors of rock” (BRISTOL-MYERS SQUIBB COMPANY, priority 2015, dated 2018)", "note": "pIC50: −log10 of the molar value.", "data": [{"target": "ROCK2 (Homo sapiens, UniProt O75116)", "sequence (O75116 whole entry, species assumed)": "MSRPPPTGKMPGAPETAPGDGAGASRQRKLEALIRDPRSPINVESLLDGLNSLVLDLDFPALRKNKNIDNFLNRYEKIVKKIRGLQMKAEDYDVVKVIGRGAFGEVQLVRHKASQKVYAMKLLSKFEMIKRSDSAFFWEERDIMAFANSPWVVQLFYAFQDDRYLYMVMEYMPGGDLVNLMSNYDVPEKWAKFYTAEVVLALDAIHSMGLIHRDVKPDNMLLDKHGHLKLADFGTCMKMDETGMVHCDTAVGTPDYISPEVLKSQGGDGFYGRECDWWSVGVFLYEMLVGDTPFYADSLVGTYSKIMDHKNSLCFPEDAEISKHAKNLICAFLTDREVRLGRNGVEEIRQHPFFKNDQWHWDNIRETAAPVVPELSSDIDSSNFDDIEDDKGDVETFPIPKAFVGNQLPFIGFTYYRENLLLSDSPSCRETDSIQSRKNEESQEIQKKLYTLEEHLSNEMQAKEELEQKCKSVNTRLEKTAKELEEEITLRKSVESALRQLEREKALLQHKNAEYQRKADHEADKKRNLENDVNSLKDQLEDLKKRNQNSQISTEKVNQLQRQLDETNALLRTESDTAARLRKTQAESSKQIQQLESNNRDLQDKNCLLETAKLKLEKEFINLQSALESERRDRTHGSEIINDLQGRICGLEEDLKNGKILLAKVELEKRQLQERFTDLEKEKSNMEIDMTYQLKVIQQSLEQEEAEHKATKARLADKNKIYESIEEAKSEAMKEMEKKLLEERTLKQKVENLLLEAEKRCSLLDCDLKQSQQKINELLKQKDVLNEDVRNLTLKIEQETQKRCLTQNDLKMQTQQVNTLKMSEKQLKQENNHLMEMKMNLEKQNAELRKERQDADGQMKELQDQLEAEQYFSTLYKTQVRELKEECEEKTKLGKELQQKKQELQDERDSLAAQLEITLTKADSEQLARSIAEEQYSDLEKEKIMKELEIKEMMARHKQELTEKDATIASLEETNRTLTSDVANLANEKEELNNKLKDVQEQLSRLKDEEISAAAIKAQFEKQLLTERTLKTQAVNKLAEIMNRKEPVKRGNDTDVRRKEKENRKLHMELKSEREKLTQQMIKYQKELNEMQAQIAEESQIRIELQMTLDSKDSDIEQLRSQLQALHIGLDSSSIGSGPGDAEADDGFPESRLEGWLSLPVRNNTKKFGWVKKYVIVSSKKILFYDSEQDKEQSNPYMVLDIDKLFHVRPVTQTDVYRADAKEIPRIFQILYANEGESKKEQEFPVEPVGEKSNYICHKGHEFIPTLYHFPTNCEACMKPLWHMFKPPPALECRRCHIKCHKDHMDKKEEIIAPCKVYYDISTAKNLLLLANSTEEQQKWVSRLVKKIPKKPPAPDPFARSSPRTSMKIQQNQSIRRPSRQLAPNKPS", "assay": "ROCK2 kinase inhibition assay (Caliper LABCHIP, FITC peptide substrate)", "assay_type": "biochemical", "settings": "5 μM ATP, 1.5 μM peptide substrate; value ranges", "how_it_was_run": "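Dose-response curves gave IC50 from inhibition of peptide phosphorylation, measured by LabChip separation after EDTA stop. Reactions used 1.5 μM FITC-labelled peptide, 5 μM ATP, 20 mM HEPES pH 7.5 with MgCl2, Brij-35, DTT, and under 2% DMSO.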", "values": [{"molecule": "COc1cc(F)cc(CN2CCN(c3ccc(-c4cn[nH]c4)cn3)C2=O)c1", "note": "[Example 428, 1-(5-(1H-pyrazol-4-yl)pyridin-2-yl)-3-(3-fluoro-5-methoxybenzyl)imidazolidin-2-one]", "pIC50": "7.70 to 8.68"}, {"molecule": "COc1cc(CN2CCN(c3ccc(-c4cn[nH]c4)cn3)C2=O)ccc1F", "note": "[Example 429, 1-(5-(1H-pyrazol-4-yl)pyridin-2-yl)-3-(4-fluoro-3-methoxybenzyl)imidazolidin-2-one]", "pIC50": "7.70 to 8.68"}, {"molecule": "COc1cccc(CN2CCN(c3ccc(-c4cn[nH]c4)c(F)c3)C2=O)c1", "note": "[Example 430, 1-(3-fluoro-4-(1H-pyrazol-4-yl)phenyl)-3-(3-methoxybenzyl)imidazolidin-2-one]", "pIC50": "7.70 to 8.68"}, {"molecule": "COc1cccc(F)c1CN1CCN(c2ccc(-c3cn[nH]c3)c(F)c2)C1=O", "note": "[Example 431, 1-(3-fluoro-4-(1H-pyrazol-4-yl)phenyl)-3-(2-fluoro-6-methoxybenzyl)imidazolidin-2-one]", "pIC50": "6.70 to 7.70"}, {"molecule": "COc1ccc(CN2CCN(c3ccc(-c4cn[nH]c4)c(F)c3)C2=O)cc1F", "note": "[Example 432, 1-(3-fluoro-4-(1H-pyrazol-4-yl)phenyl)-3-(3-fluoro-4-methoxybenzyl)imidazolidin-2-one]", "pIC50": "6.70 to 7.70"}, {"molecule": "COc1cccc(CN2CCN(c3ccc(-c4cn[nH]c4)c(F)c3)C2=O)c1F", "note": "[Example 433, 1-(2-fluoro-3-methoxybenzyl)-3-(3-fluoro-4-(1H-pyrazol-4-yl)phenyl)imidazolidin-2-one]", "pIC50": "6.70 to 7.70"}, {"molecule": "COc1cc(CN2CCN(c3ccc(-c4cn[nH]c4)c(F)c3)C2=O)ccc1F", "note": "[Example 434, 1-(4-fluoro-3-methoxybenzyl)-3-(3-fluoro-4-(1H-pyrazol-4-yl)phenyl)imidazolidin-2-one]", "pIC50": "7.70 to 8.68"}, {"molecule": "COc1cc(F)cc(CN2CCN(c3ccc(-c4cn[nH]c4)nc3)C2=O)c1", "note": "[Example 437, 1-(6-(1H-pyrazol-4-yl)pyridin-3-yl)-3-(3-fluoro-5-methoxybenzyl)imidazolidin-2-one]", "pIC50": "6.70 to 7.70"}, {"molecule": "O=C1N(Cc2cccc(OCC3CC3)c2)CCN1c1ccc(-c2cn[nH]c2)cn1", "note": "[Example 438, 1-(5-(1H-pyrazol-4-yl)pyridin-2-yl)-3-(3-(cyclopropylmethoxy)benzyl)imidazolidin-2-one]", "pIC50": "6.70 to 7.70"}, {"molecule": "COc1cccc(CN2CCN(c3ccc(-c4cn[nH]c4)nc3)C2=O)c1", "note": "[Example 439, 1-(6-(1H-pyrazol-4-yl)pyridin-3-yl)-3-(3-methoxybenzyl)imidazolidin-2-one]", "pIC50": "7.70 to 8.68"}, {"molecule": "COc1cc(CN2CCN(c3ccc(-c4cn[nH]c4)nc3)C2=O)ccc1F", "note": "[Example 440, 1-(6-(1H-pyrazol-4-yl)pyridin-3-yl)-3-(4-fluoro-3-methoxybenzyl)imidazolidin-2-one]", "pIC50": "6.70 to 7.70"}, {"molecule": "O=C1N(Cc2cccc(OCC3CC3)c2)CCN1c1ccc(-c2cn[nH]c2)nc1", "note": "[Example 441, 1-(6-(1H-pyrazol-4-yl)pyridin-3-yl)-3-(3-(cyclopropylmethoxy)benzyl)imidazolidin-2-one]", "pIC50": "5.70 to 6.70"}, {"molecule": "COc1cccc(C(CO)N2CCN(c3ccc(-c4cn[nH]c4)cn3)C2=O)c1", "note": "(stereo not drawn) [Example 442, 1-(5-(1H-pyrazol-4-yl)pyridin-2-yl)-3-(2-hydroxy-1-(3-methoxyphenyl)ethyl)imidazolidin-2-one]", "pIC50": "5.70 to 6.70"}, {"molecule": "CC(C)COc1cccc(CN2CCN(c3ccc(-c4cn[nH]c4)c(F)c3)C2=O)c1", "note": "[Example 443, 1-(3-fluoro-4-(1H-pyrazol-4-yl)phenyl)-3-(3-isobutoxybenzyl)imidazolidin-2-one]", "pIC50": "7.70 to 8.68"}, {"molecule": "CC(C)COc1cccc(CN2CCN(c3ccc(-c4cn[nH]c4)cn3)C2=O)c1", "note": "[Example 444, 1-(5-(1H-pyrazol-4-yl)pyridin-2-yl)-3-(3-isobutoxybenzyl)imidazolidin-2-one]", "pIC50": "6.70 to 7.70"}, {"molecule": "COc1cccc(CN2CCN(c3ccc(-c4cn[nH]c4)cn3)C2=O)c1", "note": "[Example 446, 1-(5-(1H-pyrazol-4-yl)pyridin-2-yl)-3-(3-methoxybenzyl)imidazolidin-2-one]", "pIC50": "7.70 to 8.68"}, {"molecule": "COc1cccc(CN2CCN(c3cc(F)c(-c4cn[nH]c4)cc3F)C2=O)c1", "note": "[Example 447, 1-(2,5-difluoro-4-(1H-pyrazol-4-yl)phenyl)-3-(3-methoxybenzyl)imidazolidin-2-one]", "pIC50": "6.70 to 7.70"}, {"molecule": "COc1cc(F)cc(CN2CCN(c3cc(F)c(-c4cn[nH]c4)cc3F)C2=O)c1", "note": "[Example 448, 1-(2,5-difluoro-4-(1H-pyrazol-4-yl)phenyl)-3-(3-fluoro-5-methoxybenzyl)imidazolidin-2-one]", "pIC50": "6.70 to 7.70"}, {"molecule": "COc1cc(CN2CCN(c3cc(F)c(-c4cn[nH]c4)cc3F)C2=O)ccc1F", "note": "[Example 449, 1-(2,5-difluoro-4-(1H-pyrazol-4-yl)phenyl)-3-(4-fluoro-3-methobenzyl)imidazolidin-2-one]", "pIC50": "6.70 to 7.70"}, {"molecule": "COc1cc(CN2C(=O)N(c3ccc(-c4cn[nH]c4)cn3)CC2(C)C)ccc1F", "note": "[Example 450, 1-(5-(1H-pyrazol-4-yl)pyridin-2-yl)-3-(4-fluoro-3-methoxybenzyl)-4,4-dimethylimidazolidin-2-one]", "pIC50": "7.70 to 8.68"}, {"molecule": "COc1cccc(CN2C(=O)N(c3ccc(-c4cn[nH]c4)cn3)CC2(C)C)c1", "note": "[Example 451, 1-(5-(1H-pyrazol-4-yl)pyridin-2-yl)-3-(3-methoxybenzyl)-4,4-dimethylimidazolidin-2-one]", "pIC50": "> 8.70"}, {"molecule": "CC1(C)CN(c2ccc(-c3cn[nH]c3)cn2)C(=O)N1Cc1cccc(OCC2CC2)c1", "note": "[Example 452, 1-(5-(1H-pyrazol-4-yl)pyridin-2-yl)-3-(3-(cyclopropylmethoxy)benzyl)-4,4-dimethylimidazolidin-2-one]", "pIC50": "7.70 to 8.68"}, {"molecule": "CCc1cc(-n2ccn(Cc3cccc(OC)c3)c2=O)ccc1-c1cn[nH]c1", "note": "[Example 453, 1-(3-ethyl-4-(1H-pyrazol-4-yl)phenyl)-3-(3-methoxybenzyl)-1H-imidazol-2(3H)-one]", "pIC50": "6.70 to 7.70"}, {"molecule": "CCc1cc(-n2ccn(Cc3cc(F)cc(OC)c3)c2=O)ccc1-c1cn[nH]c1", "note": "[Example 454, 1-(3-ethyl-4-(1H-pyrazol-4-yl)phenyl)-3-(3-fluoro-5-methoxybenzyl)-1H-imidazol-2(3H)-one]", "pIC50": "6.70 to 7.70"}, {"molecule": "CCc1cc(-n2ccn(Cc3cccc(OCC4CC4)c3)c2=O)ccc1-c1cn[nH]c1", "note": "[Example 455, 1-(3-(cyclopropylmethoxy)benzyl)-3-(3-ethyl-4-(1H-pyrazol-4-yl)phenyl)-1H-imidazol-2(3H)-one]", "pIC50": "5.70 to 6.70"}, {"molecule": "COc1cccc([C@H](C)N2CCN(c3ccc(-c4cn[nH]c4)cc3)C2=O)c1", "note": "[Example 456, (S)-1-(4-(1H-pyrazol-4-yl)phenyl)-3-(1-(3-methoxyphenyl)ethyl)imidazolidin-2-one]", "pIC50": "6.70 to 7.70"}, {"molecule": "COc1cc(F)cc(CN2C(=O)N(c3ccc(-c4cn[nH]c4)cn3)CC2(C)C)c1", "note": "[Example 458, 1-(5-(1H-pyrazol-4-yl)pyridin-2-yl)-3-(3-fluoro-5-methoxybenzyl)-4,4-dimethylimidazolidin-2-one]", "pIC50": "7.70 to 8.68"}, {"molecule": "COc1cccc(C(CO)N2CCN(c3ccc(-c4cn[nH]c4)c(F)c3)C2=O)c1", "note": "(stereo not drawn) [Example 463, 1-(3-fluoro-4-(1H-pyrazol-4-yl)phenyl)-3-(2-hydroxy-1-(3-methoxyphenyl)ethyl)imidazolidin-2-one]", "pIC50": "7.70 to 8.68"}, {"molecule": "COc1cc(F)cc(CN2CCN(c3cc(C)c(-c4cn[nH]c4)cn3)C2=O)c1", "note": "[Example 464, 1-(3-fluoro-5-methoxybenzyl)-3-(4-methyl-5-(1H-pyrazol-4-yl)pyridin-2-yl)imidazolidin-2-one]", "pIC50": "6.70 to 7.70"}, {"molecule": "COc1cccc(CN2CCN(c3cc(C)c(-c4cn[nH]c4)cn3)C2=O)c1", "note": "[Example 465, 1-(3-methoxybenzyl)-3-(4-methyl-5-(1H-pyrazol-4-yl)pyridin-2-yl)imidazolidin-2-one]", "pIC50": "6.70 to 7.70"}, {"molecule": "COc1cccc(CN2CCN(c3ccc(-c4cn[nH]c4)c(OC)n3)C2=O)c1", "note": "[Example 466, 1-(6-methoxy-5-(1H-pyrazol-4-yl)pyridin-2-yl)-3-(3-methoxybenzyl)imidazolidin-2-one]", "pIC50": "> 8.70"}, {"molecule": "COc1cc(F)cc(CN2CCN(c3ccc(-c4cn[nH]c4)c(OC)n3)C2=O)c1", "note": "[Example 467, 1-(3-fluoro-5-methoxybenzyl)-3-(6-methoxy-5-(1H-pyrazol-4-yl)pyridin-2-yl)imidazolidin-2-one]", "pIC50": "> 8.70"}, {"molecule": "COc1cccc(CN2CCN(c3ccc(-c4cn[nH]c4)c(C4CC4)c3)C2=O)c1", "note": "[Example 468, 1-(3-cyclopropyl-4-(1H-pyrazol-4-yl)phenyl)-3-(3-methoxybenzyl)imidazolidin-2-one]", "pIC50": "6.70 to 7.70"}, {"molecule": "COc1cc(F)cc(CN2CCN(c3ccc(-c4cn[nH]c4)c(C4CC4)c3)C2=O)c1", "note": "[Example 469, 1-(3-cyclopropyl-4-(1H-pyrazol-4-yl)phenyl)-3-(3-fluoro-5-methoxybenzyl)imidazolidin-2-one]", "pIC50": "6.70 to 7.70"}, {"molecule": "COc1cc(F)cc(CN2CCN(c3cc(OC)c(-c4cn[nH]c4)cn3)C2=O)c1", "note": "[Example 472, 1-(3-fluoro-5-methoxybenzyl)-3-(4-methoxy-5-(1H-pyrazol-4-yl)pyridin-2-yl)imidazolidin-2-one]", "pIC50": "7.70 to 8.68"}, {"molecule": "CCOc1cc(N2CCN(Cc3cccc(OC)c3)C2=O)ncc1-c1cn[nH]c1", "note": "[Example 473, 1-(4-ethoxy-5-(1H-pyrazol-4-yl)pyridin-2-yl)-3-(3-methoxybenzyl)imidazolidin-2-one]", "pIC50": "6.70 to 7.70"}, {"molecule": "COc1cccc(CN2C(=O)N(c3ccc(-c4cn[nH]c4)cn3)C[C@@H]2CO)c1", "note": "[Example 474, (R)-1-(5-(1H-pyrazol-4-yl)pyridin-2-yl)-4-(hydroxymethyl)-3-(3-methoxybenzyl)imidazolidin-2-one]", "pIC50": "7.70 to 8.68"}, {"molecule": "COc1nc(N2CCN(Cc3cccc(OCC4CC4)c3)C2=O)ccc1-c1cn[nH]c1", "note": "[Example 475, 1-(3-(cyclopropylmethoxy)benzyl)-3-(6-methoxy-5-(1H-pyrazol-4-yl)pyridin-2-yl)imidazolidin-2-one]", "pIC50": "> 8.70"}, {"molecule": "O=C1N(c2ccc(-c3cn[nH]c3)cc2)C[C@@H](CO)N1Cc1cccc(OCC2CC2)c1", "note": "[Example 476, (S)-1-(4-(1H-pyrazol-4-yl)phenyl)-3-(3-(cyclopropylmethoxy)benzyl)-4-(hydroxymethyl)imidazolidin-2-one]", "pIC50": "7.70 to 8.68"}]}]}
